Measurements as given in patent publication US20250099474A1 (priority 2022, published 2025).

Assays:
[1] = single ascending dose study in healthy Japanese adults; cited from earlier work
[2] = Phase I clinical study Part 1, single administration, pharmacokinetics and safety; type: in vivo, human; conditions: human, plasma, oral; in any dose group, single administration
Experimental: Test Example 3-1 Phase I Clinical Study
All studies were conducted based on Good Clinical Practice (GCP). The phase I clinical study was composed of Part 1 to Part 7, and in Part 1, the safety, tolerability, and pharmacokinetics were confirmed when the fumaric acid cocrystal Form I crystal of the compound represented by Formula (I) was administered once and when it was administered repeatedly.
The subjects who were determined to be eligible by the screening examination were randomly assigned to either the active drug group (see the following table for the dose of the fumaric acid cocrystal Form I crystal of the compound represented by Formula (I)) or the placebo group on the day before the day of administration of the investigational new drug (Day −1). On Day 1, the investigational new drug (active drug or placebo) was administered once in the fasted state.

With `Cn1cnc(Cn2c(=O)[nH]/c(=N\c3cc4cn(C)nc4cc3Cl)n(Cc3cc(F)c(F)cc3F)c2=O)n1` [compound represented by Formula (I), (6E)-6-[(6-chloro-2-methyl-2H-indazol-5-yl)imino]-3-[(1-methyl-1H-1,2,4-triazol-3-yl)methyl]-1-[(2,4,5-trifluorophenyl)methyl]-1,3,5-triazinane-2,4-dione] as the molecule, how does the Safety and tolerability [1] read?
Its Safety and tolerability is “good safety and tolerability were confirmed”.

And the half-life [2]?
The half-life was > 40 h.
